Source: patent US20180071317A1, “USE OF AGENTS THAT ALTER THE PERITUMORAL ENVIRONMENT FOR THE TREATMENT OF CANCER” (SERVICIO ANDALUZ DE SALUD, priority 2011, published 2018)

Tests used:
[1] = system: co-cultures of tumor cells-immune/inflammatory cells (leukocytes); assay: Inhibition/survival in co-cultures of primary human tumor cells and leukocytes; assay type: cell-based; settings: SP + antagonist
Experimental: To check that the interaction between the human primary tumor cells with human immune/inflammatory (polymorphonuclear and mononuclear leukocytes) cells, promotes the survival of both types of cells, cultures were carried out with sets of immune/inflammatory cells (mono and polymorphonuclear leukocytes) with tumor cells obtained directly from human primary tumors of patients.
The leukocytes were obtained from centrifugation of blood from the same patient. The leukocytes were cultured in fresh plasma from the same patient, in order to build a model similar to human physiology.

[2] = system: macrophages in co-culture with cells isolated from primary human tumors; assay: Marker expression (IHC) in macrophages co-cultured with primary human tumor cells (colon, breast, ovarian, lung carcinoma, melanoma); assay type: cell-based; settings: SP + antagonist;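 further: macrophages came from pleural or peritoneal washings of the patient who also supplied the tumor cells, and both were co-cultured on fresh blood plasma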
Experimental: To check that the interaction of tumor cells obtained directly from primary human immune cell/inflammatory (macrophages) cells, obtained from the patient stimulate secretion of substances by these macrophages recognized as important in survival of both cell types and in the progression of tumor cells, co-cultures were performed on fresh blood plasma, immune cell/inflammatory (macrophages) with tumor cells derived from primary tumors. All obtained from the same patient, to build an experimental model similar to human physiology.
Macrophages were obtained from washing or pleural or peritoneal from the same patient from which the primary tumor cells were obtained in each case.

SMILES	survival/proliferation in co-cultures of tumor cells-leukocytes (in words) [1]	expression of markers in macrophages co-cultured with primary tumor cells (in words) [2]
C#C[C@]1(O)CC[C@H]2[C@@H]3CCC4=Cc5nc6nc7ccccc7n6cc5C[C@]4(C)[C@H]3CC[C@@]21C [WIN 62,577]	same results	same results
CC(=O)N[C@@H](Cc1c[nH]c2ccccc12)C(=O)OCc1cc(C(F)(F)F)cc(C(F)(F)F)c1 [L-732,138, N-Acetyl-L-tryptophan 3,5-bis (trifluoromethyl)benzyl ester]	same results	same results
COc1ccccc1CN[C@H]1CCCN[C@H]1c1ccccc1 [CP-100263]	same results	same results
Ic1ccccc1CNC1C2CCN(CC2)C1C(c1ccccc1)c1ccccc1.O=C(O)C(=O)O [L-703,606, cis-2-(Diphenylmethyl)-N-[(2-iodophenyl)methyl]-1-azabicyclo [2.2.2]octan-3-amine oxalate salt]	same results	same results
Cl.FC(F)(F)c1cc(CO[C@H]2CCCN[C@H]2c2ccccc2)cc(C(F)(F)F)c1 [L-733,060, (2S,3S)-3-[(3,5-bis (Trifluoromethyl)phenyl)methoxy]-2-phenylpiperidine hydrochloride]	same results	same results
COc1ccccc1CN[C@H]1C2CCN(CC2)[C@H]1C(c1ccccc1)c1ccccc1 [CP-96345]	same results	same results
C[C@@H](O[C@H]1OCCN(Cc2n[nH]nc2CN(C)C)[C@H]1c1ccc(F)cc1)c1cc(C(F)(F)F)cc(C(F)(F)F)c1.Cl [L-760735]	same results	same results
C#C[C@]1(O)CC[C@H]2[C@@H]3CC[C@H]4Cc5nc6nc7ccccc7n6cc5C[C@]4(C)[C@H]3CC[C@@]21C [WIN 51708]	same results	same results
